In patent US20260273074A1, “FERRITIN-TARGETING PROTACS AND METHODS OF INDUCING PYROPTOSIS” (Wisconsin Alumni Research Foundation, priority 2023, published 2026):
Where two headings read alike, the source gives them in different places.

Experiments:
[1] = molecular target: T1, apoferritin from equine spleen (Equus caballus, UniProt P02791); test: Isothermal titration calorimetry (ITC) binding to ferritin
T1 construct: the apoferritin from equine spleen (A3660, Sigma-Aldrich) that is not combined with iron was used; purchased Sigma-Aldrich A3660; host or cells: equine spleen (tissue-derived)
T1 sequence (P02791 2-175 limits assumed): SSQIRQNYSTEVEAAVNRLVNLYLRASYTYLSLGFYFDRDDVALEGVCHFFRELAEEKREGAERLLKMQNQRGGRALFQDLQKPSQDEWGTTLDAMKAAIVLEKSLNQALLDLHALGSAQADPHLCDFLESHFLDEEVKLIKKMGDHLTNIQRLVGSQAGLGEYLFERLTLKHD
Description: As for the ferritin proteins, the apoferritin from equine spleen (A3660, Sigma-Aldrich) that is not combined with iron was used. Before the ITC test, 1 mL of apoferritin in glycerol solution (50% glycerol and 0.075 M NaCl) was placed in a dialysis bag with a molecular weight cut-off of 3 kDa. The dialysis bags were then immersed in the prepared solution (20 mM Tris-HCl, pH 8.5, and 130 mM NaCl) and stirred at room temperature. The dialysis buffer was changed every 24 h for three times, and the last buffer was collected and 0.05% DMSO was added to serve as the ITC buffer. As for the oleic acid, 12 μM apoferritin in the ITC buffer was placed in the ITC cell, and the syringe was full of 250 μM oleic acid in the same ITC buffer. Besides the first injection with 5 μL of the oleic acid solution, 18 aliquots with 10 μL of the oleic acid solution were titrated into the apoferritin solution with a time interval of 300 s. […] Besides the first injection with 1 μL of the apoferritin solution, 25 aliquots were titrated with a time interval of 300 s. Raw data were corrected for control titrations (the solution in the syringe into the blank ITC buffer in the cell) and integrated using Origin 7.0 (MicroCal). Binding kinetics parameters, including N, Kd, ΔH, and ΔS, were calculated using a single-class binding site model.

[2] = system: B16F10 cells; test: Cell viability evaluation by CCK-8 assay; conditions: for IC50: Mus musculus, read-out: IC50 of cell viability
Description: Cell viability evaluation: The cell viability of B16F10 cells treated with ferritin degraders with or without various inhibitors was evaluated by CCK-8 assay. Briefly, 5×10^3 cells were seeded in 96-well plates and cultured for 24 h for attachment. Then the medium in the corresponding wells, except the control, was replaced with 100 μL of medium containing the indicated degrader formulations with concentrations of 0.008, 0.04, 0.2, 1, and 5 μM. After incubation for 24 or 48 h, CCK-8 reagent was added and interacted with cells at 37° C. for 1 h. The absorbance was measured by a microplate reader (Infinite M Plex) at the detection wavelength of 450 nm.
For blocking assays with Z-VAD, NSCI, and VX-765, 5×10^3 cells were seeded in 96-well plates and cultured 24 h for attachment. Then the medium in the corresponding wells, except the control, was replaced with 100 μL of medium containing Z-VAD (10 μM), NSCI (0.1 μM), or VX-765 (10 μM). […] Following another 24-h incubation, CCK-8 reagents were added and interacted with cells at 37° C. for 1 h. The absorbance was measured by a microplate reader (Infinite® M Plex) at the detection wavelength of 450 nm. For blocking assays with DFOM, 5×10^3 cells were seeded in 96-well plates and cultured 24 h for attachment. […] Following another 20-h incubation, CCK-8 reagents were added and interacted with cells at 37° C. for 1 h. The absorbance was measured by a microplate reader (Infinite® M Plex) at the detection wavelength of 450 nm.

[3] = system: cleaved caspase 3; test: Western blot of cleaved caspase 3 in B16F10 cells; type: cell-based, murine; conditions: 8 h
Description: (§1) As for the determination of cleaved-GSDME and cleaved-caspase-3, B16F10 cells were seeded in 6-well culture plates (2×10^5 cells per well) and cultured for 24 h. Then the medium in the corresponding wells except the negative control was replaced with 1 mL of medium containing ferritin degraders, albumin nanoparticles, or the degrader with inhibitors at the indicated concentrations. Incubation for another 6 or 8 h was used to test the cleaved-caspase-3, while treatment for another 16 or 20 h was used to test cleaved-GSDME. The following procedures were the same as mentioned above.

[4] = system: GSDME-N; test: Western blot of cleaved N-terminal GSDME (GSDME-N) in B16F10 cells; type: cell-based, murine; conditions: 20 h
Description: as §1

Compound: CCCCCCCCC=CCCCCCCCC(=O)NCCCC(=O)NC(C(=O)N1CC(O)CC1C(=O)NCc1ccc(-c2scnc2C)cc1)C(C)(C)C (stereo not drawn) [DeFer-2]
- Kd [1]: 17.1 ± 1.96 µM
- cytotoxicity against B16F10 cells [2]: severe cytotoxicity
- IC50 ([2]; B16-F10, 24 h): 3.1 µM
- IC50 ([2]; B16-F10, 48 h): 1.5 µM
- level of cleaved caspase 3 [3]: increased the level of cleaved caspase 3 in a dose-dependent manner
- generation of GSDME-N [4]: enhance the generation of GSDME-N
